Experimental data as given in patent US20220356186A1, “PERK INHIBITING PYRROLOPYRIMIDINE COMPOUNDS” (HiberCell, Inc., priority 2019, published 2022).
Where two headings read alike, the source gives them in different places.

Legend:
[1] = biological target: T1, EIF2AK3 (PERK) catalytic domain (amino acids 536-1116) (Homo sapiens, UniProt Q9NZJ5); experiment: PERK in vitro activity assay (isolated), TR-FRET kinase assay; format: biochemical; settings: isolated PERK enzyme, 1.5 μM ATP; read-out: Biochemical IC50
T1 construct: EIF2AK3 (PERK) catalytic domain (amino acids 536-1116)
T1 sequence (Q9NZJ5 536-1116): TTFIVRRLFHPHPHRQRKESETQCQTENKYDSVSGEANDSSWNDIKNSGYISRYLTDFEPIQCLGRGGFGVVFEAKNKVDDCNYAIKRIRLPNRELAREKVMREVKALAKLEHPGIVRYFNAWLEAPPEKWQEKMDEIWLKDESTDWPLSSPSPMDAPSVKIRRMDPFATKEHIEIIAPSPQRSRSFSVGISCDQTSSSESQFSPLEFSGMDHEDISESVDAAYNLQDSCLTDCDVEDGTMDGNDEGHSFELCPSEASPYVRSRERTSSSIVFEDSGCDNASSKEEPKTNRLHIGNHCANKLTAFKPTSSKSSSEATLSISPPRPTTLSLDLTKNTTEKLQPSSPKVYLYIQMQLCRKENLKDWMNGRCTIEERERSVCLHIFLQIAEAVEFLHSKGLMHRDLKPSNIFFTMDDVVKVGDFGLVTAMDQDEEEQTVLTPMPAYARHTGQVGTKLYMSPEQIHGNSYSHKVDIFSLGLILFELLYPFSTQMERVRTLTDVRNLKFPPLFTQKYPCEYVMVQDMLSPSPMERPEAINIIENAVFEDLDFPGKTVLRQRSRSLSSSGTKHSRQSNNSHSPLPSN
Source text: PERK In Vitro Activity Assay (Isolated):
In vitro Inhibition of PERK Enzyme Activity (isolated) Recombinant human EIF2AK2 (PKR) catalytic domain (amino acids 252-551), EIF2AK3 (PERK) catalytic domain (amino acids 536-1116), GFP-eIF2a substrate, and Terbium-labelled phospho-eIF2a antibody is obtained (Invitrogen, Carlsbad, Calif.).
Express and purify HIS-SUMO-GCN2 catalytic domain (amino acids 584-1019) from E. coli. Perform TR-FRET kinase assays in the absence or presence of inhibitors in a reaction buffer consisting of 50 mM HEPES, pH 7.5, 10 mM MgCb, 1.0 mM EGTA, and 0.01% Brij-35, and 100-200 nM GFP-eIF2a substrate. […] Add test compound, initiate the reaction by addition of enzyme, and incubate at room temperature for 45 minutes. Stop the reaction by addition of EDTA to a final concentration of 10 mM, add Terbium-labelled phospho-eIF2a antibody at a final concentration of 2 nM, and incubate for 90 minutes. Monitor the resulting fluorescence in an EnVison® Multilabel reader (PerkinElmer, Waltham, Mass.). Determine TR-FRET ratios and the resulting IC50 values using a 4-parameter nonlinear logistic equation as shown: Y=(A+((B−A)/(1+((C/x)[…])))) where, Y=% specific inhibition, A=Bottom of the curve, B=Top of the curve, C=absolute IC50 (concentration causing 50% inhibition), and D=hill slope.

[2] = tested on: GFP-eIF2α in HEK293 cells; experiment: PERK cellular assay, TR-FRET in HEK293-EGFP-eIF2a cells after tunicamycin-induced ER stress; format: cell-based; settings: HEK293-EGFP-eIF2a cells, tunicamycin 2 hours, read-out: Cellular eIF2α IC50
Procedure: Stable cell lines were created in HEK293 cells using lentiviral particles harboring an expression vector for GFP-eIF2α. Cells were selected using puromycin and enriched using fluorescence activated cell sorting against GFP. HEK293-EGFP-eIF2a cells were plated at 5000 cells/well in 384-well assay plates and incubated overnight at 37° C., 5% CO2. Inhibitor compounds were added to the wells by Echo acoustic dispensing and incubated for 30 minutes at 37° C., 5% CO2 prior to induction of ER stress by addition of tunicamycin to […] for 2 hours. Cells were lysed and TR-FRET was measured in an EnVision plate reader (PerkinElmer). FRET ratio data was normalized to signal from lysates treated with DMSO vehicle control and plotted as percent inhibition against 10-point; 3-fold dilution series of inhibitors. IC50 values were calculated using 4-parameter logistical fitting in XLFit.

Compound | IC50 [1] | IC50 [2] | IC50 ([2]; Homo sapiens, HEK293, 2 h)
Cc1nc(N)c2c(-c3ccc(NC(=O)C(O)c4cccc(F)c4)cc3C)cn(C)c2n1 (single isomer, unassigned) [Example 2, N-(4-(4-amino-2,7-dimethyl-7H-pyrrolo[2,3-d]pyrimidin-5-yl)-3-methylphenyl)-2-(3-fluorophenyl)-2-hydroxyacetamide] | 51 to 100 nM | 251 to 500 nM | 
Cn1cc(-c2ccc(NC(=O)C(O)c3cccc(F)c3)cc2F)c2c(N)ncnc21 (single isomer, unassigned) [Example 3, N-(4-(4-amino-7-methyl-7H-pyrrolo[2,3-d]pyrimidin-5-yl)-3-fluorophenyl)-2-(3-fluorophenyl)-2-hydroxyacetamide] | 1 to 25 nM | 26 to 50 nM | 
Cn1cc(-c2ccc(NC(=O)C(O)c3cccc(F)c3)cc2F)c2c(N)ncnc21 (single isomer, unassigned) [Example 4, N-(4-(4-amino-7-methyl-7H-pyrrolo[2,3-d]pyrimidin-5-yl)-3-fluorophenyl)-2-(3-fluorophenyl)-2-hydroxyacetamide] | 1 to 25 nM | 1 to 25 nM | 
Cc1nc(N)c2c(-c3ccc(NC(=O)C(O)c4cccc(F)c4)cc3OC(F)(F)F)cn(C)c2n1 (single isomer, unassigned) [Example 21, N-(4-(4-amino-2,7-dimethyl-7H-pyrrolo[2,3-d]pyrimidin-5-yl)-3-(trifluoromethoxy)phenyl)-2-(3-fluorophenyl)-2-hydroxyacetamide] | 1 to 25 nM | 501 to 1000 nM | 
Cc1nc(N)c2c(-c3ccc(NC(=O)C(O)c4cccc(F)c4)cc3OC(F)(F)F)cn(C)c2n1 (single isomer, unassigned) [Example 22, N-(4-(4-amino-2,7-dimethyl-7H-pyrrolo[2,3-d]pyrimidin-5-yl)-3-(trifluoromethoxy)phenyl)-2-(3-fluorophenyl)-2-hydroxyacetamide] | 101 to 250 nM | > 5000 nM | 
Cc1nc(N)c2c(-c3ccc(NC(=O)C(O)c4cc(F)cc(C(F)(F)F)c4)cc3C)cn(C)c2n1 (single isomer, unassigned) [Example 54, N-(4-(4-amino-2,7-dimethyl-7H-pyrrolo[2,3-d]pyrimidin-5-yl)-3-methylphenyl)-2-(3-fluoro-5-(trifluorophenyl)phenyl)-2-hydroxyacetamide] | 1 to 25 nM | 26 to 50 nM | 
Cc1nc(N)c2c(-c3ccc(NC(=O)C(O)c4cc(F)cc(C(F)(F)F)c4)cc3C)cn(C)c2n1 (single isomer, unassigned) [Example 55, N-(4-(4-amino-2,7-dimethyl-7H-pyrrolo[2,3-d]pyrimidin-5-yl)-3-methylphenyl)-2-(3-fluoro-5-(trifluoromethyl)phenyl)-2-hydroxyacetamide] | 101 to 250 nM | 251 to 500 nM | 
Cc1nc(N)c2c(-c3ccc(NC(=O)C(O)c4cccc5cnn(C)c45)cc3C)cn(C)c2n1 (single isomer, unassigned) [Example 64, N-(4-(4-amino-2,7-dimethyl-7H-pyrrolo[2,3-d]pyrimidin-5-yl)-3-methylphenyl)-2-hydroxy-2-(1-methyl-1H-indazol-7-yl)acetamide] | 251 to 500 nM |  | 2000 to 3000 nM
Cc1nc(N)c2c(-c3ccc(NC(=O)C(O)c4cccc5cnn(C)c45)cc3C)cn(C)c2n1 (single isomer, unassigned) [Example 65, N-(4-(4-amino-2,7-dimethyl-7H-pyrrolo[2,3-d]pyrimidin-5-yl)-3-methylphenyl)-2-hydroxy-2-(1-methyl-1H-indazol-7-yl)acetamide] | 251 to 500 nM | 3000 to 4000 nM | 
COc1cc(NC(=O)C(O)c2cccc(F)c2)ccc1-c1cn(C)c2nc(C)nc(N)c12 (single isomer, unassigned) [Example 105, N-(4-(4-amino-2,7-dimethyl-7H-pyrrolo[2,3-d]pyrimidin-5-yl)-3-methoxyphenyl)-2-(3-fluorophenyl)-2-hydroxyacetamide] | > 5000 nM | > 5000 nM | 
Cc1nc(N)c2c(-c3ccc(NC(=O)C(O)c4ccccc4C)cc3F)cn(C)c2n1 (stereo not shown) [Example 71, N-(4-(4-amino-2,7-dimethyl-7H-pyrrolo[2,3-d]pyrimidin-5-yl)-3-fluorophenyl)-2-hydroxy-2-(o-tolyl)acetamide] |  | 2000 to 3000 nM | 
Cc1nc(N)c2c(-c3ccc(NC(=O)C(O)c4ccccc4C)cc3F)cn(C)c2n1 (stereo not shown) [Example 72, N-(4-(4-amino-2,7-dimethyl-7H-pyrrolo[2,3-d]pyrimidin-5-yl)-3-fluorophenyl)-2-hydroxy-2-(o-tolyl)acetamide] |  | 26 to 50 nM | 

Second part, led by results:

IC50 [1] | Compound | IC50 [2] | IC50 ([2]; Homo sapiens, HEK293, 2 h)
101 to 250 nM | COc1cc(NC(=O)C(O)c2cccc(F)c2)ccc1-c1cn(C)c2nc(C)nc(N)c12 (single isomer, unassigned) [Example 106, N-(4-(4-amino-2,7-dimethyl-7H-pyrrolo[2,3-d]pyrimidin-5-yl)-3-methoxyphenyl)-2-(3-fluorophenyl)-2-hydroxyacetamide] | 1000 to 2000 nM | 
251 to 500 nM | Cc1nc(N)c2c(-c3ccc(NC(=O)C(O)c4cccc(F)c4)c(F)c3F)cn(C)c2n1 (single isomer, unassigned) [Example 109, N-(4-(4-amino-2,7-dimethyl-7H-pyrrolo[2,3-d]pyrimidin-5-yl)-2,3-difluorophenyl)-2-(3-fluorophenyl)-2-hydroxyacetamide] | 1000 to 2000 nM | 
1 to 25 nM | Cc1nc(N)c2c(-c3ccc(NC(=O)C(O)c4cccc(F)c4)c(F)c3F)cn(C)c2n1 (single isomer, unassigned) [Example 110, N-(4-(4-amino-2,7-dimethyl-7H-pyrrolo[2,3-d]pyrimidin-5-yl)-2,3-difluorophenyl)-2-(3-fluorophenyl)-2-hydroxyacetamide] | 1 to 25 nM | 
1 to 25 nM | Cc1nc(N)c2c(-c3ccc(NC(=O)C(O)c4cc(F)cc(F)c4)c(F)c3F)cn(C)c2n1 (single isomer, unassigned) [Example 113, N-(4-(4-amino-2,7-dimethyl-7H-pyrrolo[2,3-d]pyrimidin-5-yl)-2,3-difluorophenyl)-2-(3,5-difluorophenyl)-2-hydroxyacetamide] | 1 to 25 nM | 
251 to 500 nM | Cc1nc(N)c2c(-c3ccc(NC(=O)C(O)c4cc(F)cc(F)c4)c(F)c3F)cn(C)c2n1 (single isomer, unassigned) [Example 114, N-(4-(4-amino-2,7-dimethyl-7H-pyrrolo[2,3-d]pyrimidin-5-yl)-2,3-difluorophenyl)-2-(3,5-difluorophenyl)-2-hydroxyacetamide] | 1000 to 2000 nM | 
1 to 25 nM | Cc1nc(N)c2c(-c3ccc(NC(=O)C(O)c4cc(F)cc(C(F)(F)F)c4)c(F)c3F)cn(C)c2n1 (single isomer, unassigned) [Example 115, N-(4-(4-amino-2,7-dimethyl-7H-pyrrolo[2,3-d]pyrimidin-5-yl)-2,3-difluorophenyl)-2-(3-fluoro-5-(trifluoromethyl)phenyl)-2-hydroxyacetamide] | 1 to 25 nM | 
1 to 25 nM | Cc1cc(NC(=O)Cc2cccc(C(F)(F)F)c2)ccc1-c1cn(C)c2ncnc(N)c12 [Example 158, N-(4-(4-amino-7-methyl-7H-pyrrolo[2,3-d]pyrimidin-5-yl)-3-methylphenyl)-2-(3-(trifluoromethyl)phenyl)acetamide] |  | 
1 to 25 nM | Cc1cc(NC(=O)Cc2ccccc2F)ccc1-c1cn(C)c2ncnc(N)c12 [Example 160, N-(4-(4-amino-7-methyl-7H-pyrrolo[2,3-d]pyrimidin-5-yl)-3-methylphenyl)-2-(2-fluorophenyl)acetamide] |  | 
26 to 50 nM | Cc1cc(NC(=O)Cc2cccc(F)c2)ccc1-c1cn(C)c2ncnc(N)c12 [Example 161] |  | 
